Positions of bridges follow the written chain, without caps; N, C: chain ends. Non-standard residues stand in square brackets, D forms with d. Residues, ends and D or L forms follow the SMILES beside them. *: point of attachment. Ileψ(thiazoline)Cys = CC[C@H](C)[C@H](N)C1=N[C@H](C(=O)*)CS1; dOrn = NCCC[C@@H](N)C(=O)O
Tests used:
[1] = tested on: S. faecalis, E. rhusiopathiae, B. bronchiseptica, S. agalactiae, Streptococcus group E and Vibrio coli; experiment: Bactericide test, comparison with chlortetracycline; format: cell-based; conditions: Table A
Source text: Test formulations were examined for bactericidal and/or bacteriostatic activity against the test organisms shown in Tables A and B. These organisms were chosen as being representative of commercially important pathogens affecting animal agriculture. The antibiotic chlortetracycline was chosen as a positive control, since it has a broad spectrum of activity against a large number of organisms, and its activity can be used for comparative purposes.
Basic test formulations of the product of Examples I, II, III, and of chlortetracycline were prepared by dissolving 16 mg (0.016 g) in 2.0 ml of stock emulsifier solution (0.25% Triton X-155 in acetone by volume) and making each solution up to 50 ml with deionized water. The concentration of the test compound in the basic formulation was 320 ppm. Lower concentrations of the test compound were obtained by diluting the basic formulation with a 4% solution of the stock emulsifier in deionized water so that each dilution in the series differed only in test compound content.
Nutrient-tryptic soy agar (NTA) consisting of 2.0% Difco Bactoagar 0.8% nutrient broth (Difco), and 0.5% tryptic soy broth (Difco) was prepared and sterilized by autoclaving. A 2 ml aliquot of each test formulation was added to 8 ml of molten NTA. This mixture was then plated in a sterile polystyrene petri dish (100 × 15 mm). After the agar was set, suspensions of each of the test organisms were simultaneously streaked onto the surface of the agar. The inoculated plates were incubated for 48 hr. at 28°C. The inhibition of growth of each organism was rated by visual comparison with the organism developing on non-treated agar. Growth inhibition reported as percent control was rated in three categories as follows: 0% control, growth equivalent to that on non-treated agar; 50% control, sparse development and separated colonies; 100% control, no visible growth or development of colonies.

[2] = Example VIII: 4 week chick feeding test at low levels; format: in vivo, broiler cross chicks
Source text: (§1) Day old broiler cross chicks were weight equalized into groups of 8 chicks each and were placed in battery brooders. The 32 chick treatment groups (4 replicates) were fed one of the five rations described below for a four week period. Weekly measurements of body weights and feed consumption were made by replicate, and these measurements used to calculate weight gain and feed efficiency.
The basal ration was the basal ration used in Example VII above. The remaining five rations wer obtained by mixing the indicated quantities of bacitracin (4 g/T), chlortetracycline (10 g/T), product of Example I (10 g/T), and product of Example II of U.S. Pat. No. 3,542,784 -- Burch (10 g/T) as growth promotants with the basal ration.

[3] = Example XI: 4 week chick feeding test, five replicates; format: in vivo, broiler cross chicks; conditions: for feed efficiency (in words) / growth rate (in words): Table V
Source text: (§2) This example compares growth promotion activity of the product of Example I with other growth promotants at a concentration of 25 g/T in the Basal Ration described in Example VII. The other growth promotants include the product described in Example I of U.S. Pat. No. 3,542,784 -- Burch and quinoxaline-1,4-dioxide. Day old broiler cross chicks were weight equalized into groups of 8 chicks each, and four replicates of 8 chicks each were fed the experimental rations over a 4 week period.
The growth promotion tests described in Example X were repeated with the exception that fives replicates of 8 chicks each were fed the formulations described in Table V for four weeks.

[4] = Example XII: 4 week chick feeding test, repeat with five replicates (Table VII); format: in vivo, broiler cross chicks; conditions: Table VII
[5] = Example IX: chick feeding test, titration dosage; format: in vivo, broiler cross chicks
Source text: as §1
The concentrations used in this test were 6.25, 12.5, 25, 50, 100, 200 and 400 g of the Product of Example I per ton of the Basal Ration described in Example VII above. The same number and size chick treatment groups were used in this test as in Example VIII above.

[6] = Example VII: 4 week chick feeding test, weight gain and feed efficiency; format: in vivo, broiler cross chicks; conditions: analysis of variance; over Basal Ration + Bacitracin
Source text: One hundred twenty day-old broiler cross chicks were weight equalized into 15 groups of 8 chicks each and placed in battery brooders. The 40 chick treatment groups (5 replicates) were fed the one of the three rations described below for a four week period. weekly measurements of body weights and feed consumption were made by replicate, and these measurements used to calculate weight gain and feed efficiency.
The commercial type broiler starter basal ration which was used in this study was designated as the Basal Ration, and had the following composition:
The preceding basal ration was mixed with bacitracin at a level of 4 g/T as the only growth stimulant to simulate commercial practice. This mixture was designated as the Basal Ration + Bacitracin (4 g/T) and constituted the negative control in this study.
A second ration was prepared by fortifying the Basal Ration + bacitracin described above with the Product from Example I above at a level of 200 g/T, and was designated as Basal Ration + Bacitracin + Product of Example I (200 g/T). A third ration was prepared by fortifying the Basal Ration + bacitracin described above with chlortetracycline (CTC) at a level of 200 g/T, and was designated as Basal Ration + Bacitracin + Chlortetracycline (200 g/T).
The term "growth promotion" is used herein to describe the beneficial effect of a compound in eliciting a more rapid of weight gain when compared to the weight gain of control animals not fed the compound. "Feed efficiency" is a term regularly used in animal husbandry and is a measure of the pounds of feed required to produce a pound of gain in the weight of the animal. A lower mathmatical value for feed efficiency reflects improved performance.

[7] = Example XII: 4 week chick feeding test, first set (Table VI); format: in vivo, broiler cross chicks; conditions: Table VI
Source text: as §2
The growth promotion tests described in Example X were repeated with the additional testing the products of Examples II and III.

[8] = Example X: 4 week chick feeding test, 25 g/T; format: in vivo, broiler cross chicks
Source text: as §2

[9] = Example XIII: 6 week swine feeding test, growth rate and feed efficiency; format: in vivo, weanling pigs; conditions: Table VIII
Source text: Thirty-six weanling pigs weighing approximately thirty pounds each in good physical condition and originating from a common source were used in these tests. The pigs were allocated into sex and weight equalized pens of six pigs each. A one week period was allowed for acclimatization before testing. Three replicates of six pigs were fed the basal ration described below, and three replicates were fed the same basal ration supplemented with 25 g/T of the product of Example I.
The basal ration was a 17% commercial corn-soya pelletized formulation which was free of antibiotic and drug components. Composition of the basal ration formulation was: […]
The rations were offered ad libitum from six bushel self-feeders with a continuous supply of fresh water. The same ration formulations were used throughout the six week feeding period. Individual pig weighing were made after 0,2,4 and 6 (termination) week periods. Feed consumption records were kept on a pen basis, with feed efficiency conversion being compiled at the end of the 2nd, 4th and 6th (termination) week of feeding. Complete morbidity and mortality records were kept.

## O=[N+]([O-])c1ccc(C=Cc2nc(Nc3ccccc3)c3ccccc3n2)o1 [Example IV, 2-[2-(5-nitro-2-furyl)vinyl]-4-anilinoquinazoline]
[1]
  effectiveness relative to chlortetracycline (in words): considerably more effective

## CC[C@H](C)[C@H](N)C1=N[C@H](C(=O)N[C@@H](CC(C)C)C(=O)N[C@H](CCC(=O)O)C(=O)N[C@H](C(=O)N[C@H]2CCCCNC(=O)[C@H](CC(N)=O)NC(=O)[C@@H](CC(=O)O)NC(=O)[C@H](Cc3cnc[nH]3)NC(=O)[C@@H](Cc3ccccc3)NC(=O)[C@H]([C@@H](C)CC)NC(=O)[C@@H](CCCN)NC2=O)[C@@H](C)CC)CS1 [Bacitracin] ({Ileψ(thiazoline)Cys}-L[dE]IK[dOrn]I[dF]H[dD]N; lactam 4-C)
[2]; 4 g/T in Basal Ration
  Improved Response Over Basal Ration: Feed Efficiency: +1.2%
  Improved Response Over Basal Ration: Gain: -2.3%
[3]; 25g/T
  Improved Response Over Basal Ration: Feed Efficiency: +3.1%
  Improved Response Over Basal Ration: Gain: +1.2%
[3]
  feed efficiency (in words): moderate improvements in feed efficiencies
  growth rate (in words): slight improvements in growth rates

## O=[N+]([O-])c1ccc(C=Cc2nc(Nc3ccc(O)cc3)c3ccccc3n2)o1 [Example I, 2-[2-(5-nitro-2-furyl)vinyl]-4-(p-hydroxyanilino)quinazoline]
[1]
  effectiveness relative to chlortetracycline (in words): considerably more effective
[4]
  growth rate / feed efficiency response (in words): moderate improvement in production parameters
[5]; 12.5 g/T
  growth promotion (in words): noticeable growth promotion
[5]; 25 and 50 g/T
  weight gain and feed efficiency (in words): improvements in weight gain and feed efficiency
[5]; 100 g/T
  weight gain (in words): absence of weight gain improvement
[5]; 200 g/T
  improvement (in words): substantial improvements
[5]; economics and efficacy
  optimum concentration: 25 g/T
[6]
  statistical significance of improved feed efficiencies: significant at the 99.9% level of probability
  statistical significance of improved weight gains: significant at the 99.5% level of probability
[2]; Table II, compared with other growth promotants
  growth promotion (in words): greater growth promotion than any of the other growth promotants
[7]
  growth rate / feed efficiency response (in words): moderate improvement in production parameters
[3]; 25g/T + 25g/T bacitracin
  combined effect with bacitracin (in words): synergistic effects
[3]; 25g/T + Bacitracin (25g/T)
  Improved Response Over Basal Ration: Feed Efficiency: +7.5%
  Improved Response Over Basal Ration: Gain: +4.6%
[3]
  feed efficiency (in words): substantial improvement in feed efficiency
  growth rate (in words): moderate improvement in growth rate
[8]; 25g/T
  Average 4 Week Performance: Feed Efficiency: 1.503
  Improved Response Over Basal Ration: Feed Efficiency: +3.2%
  Improved Response Over Basal Ration: Gain: +6.2%
[8]; 25 g/T, Table IV
  growth rate and feed efficiency response (in words): strongest response in growth rate and feed efficiency
[9]
  feed efficiency (in words): enhanced feed efficiency
  growth (in words): very substantial growth improvement

## O=[N+]([O-])c1ccc(C=Cc2nc(Nc3cccc(O)c3)c3ccccc3n2)o1 [Example II, 2-[2-(5-nitro-2-furyl)vinyl]-4-(m-hydroxyanilino)quinazoline]
[1]
  effectiveness relative to chlortetracycline (in words): considerably more effective
[7]
  growth rate / feed efficiency response (in words): moderate improvements
